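Cultured in 96-well plates, cells were exposed to test compound for 48 hours across five concentrations. At the TGI there is no net growth.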
Legend:
Experiment in all cases: DTP human tumour cell line panel, 48 h
[1] = tested on: 786-0 renal
[2] = tested on: A498 renal
[3] = tested on: A549 NSCLC
[4] = tested on: ACHN renal
[5] = tested on: CAKI-1 renal
[6] = tested on: CCRF-CEM leukemia
[7] = tested on: COLO 205 colon
[8] = tested on: DLD-1 colon
[9] = tested on: DMS 273 small cell lung
[10] = tested on: EKVX NSCLC
[11] = tested on: HCC-2998 colon
[12] = tested on: HCT-116 colon
[13] = tested on: HCT-15 colon
[14] = tested on: HL-60(TB) leukemia
[15] = tested on: HOP-18 NSCLC
[16] = tested on: HOP-62 NSCLC
[17] = tested on: HT29 colon
[18] = tested on: IGROV1 ovarian
[19] = tested on: K-562 leukemia
[20] = tested on: KM12 colon
[21] = tested on: KM20L2 colon
[22] = tested on: LOX IMVI melanoma
[23] = tested on: LXFL 529 NSCLC
[24] = tested on: M14 melanoma
[25] = tested on: M19-MEL melanoma
[26] = tested on: MALME-3M melanoma
[27] = tested on: MOLT-4 leukemia
[28] = tested on: NCI-H226 lung
[29] = tested on: NCI-H23 lung
[30] = tested on: NCI-H460 lung
[31] = tested on: NCI-H522 lung
[32] = tested on: OVCAR-3 ovarian
[33] = tested on: OVCAR-4 ovarian
[34] = tested on: OVCAR-5 ovarian
[35] = tested on: OVCAR-8 ovarian
[36] = tested on: RXF 393 renal
[37] = tested on: RXF-631 renal
[38] = tested on: SF-268 CNS
[39] = tested on: SF-295 CNS
[40] = tested on: SF-539 CNS
[41] = tested on: SK-MEL-2 melanoma
[42] = tested on: SK-MEL-28 melanoma
[43] = tested on: SK-MEL-5 melanoma
[44] = tested on: SK-OV-3 ovarian
[45] = tested on: SN12C renal
[46] = tested on: SNB-19 CNS
[47] = tested on: SNB-75 CNS
[48] = tested on: SNB-78 CNS
[49] = tested on: SR leukemia
[50] = tested on: SW-620 colon
[51] = tested on: TK-10 renal
[52] = tested on: U251 CNS
[53] = tested on: UACC-257 melanoma
[54] = tested on: UACC-62 melanoma
[55] = tested on: UO-31 renal
[56] = tested on: XF 498 CNS

Q: Which results are given for `O=C(/C=C/c1ccccc1O)c1cccs1`?
A: TGI [1]: > 100 µM; TGI [2]: 45.5 µM; TGI [3]: > 100 µM; TGI [4]: > 100 µM; TGI [5]: > 100 µM; TGI [6]: > 100 µM; TGI [7]: > 100 µM; TGI [8]: > 100 µM; TGI [9]: > 100 µM; TGI [10]: > 100 µM; TGI [11]: > 100 µM; TGI [12]: > 100 µM; TGI [13]: > 100 µM; TGI [14]: > 100 µM; TGI [15]: > 100 µM; TGI [16]: > 100 µM; TGI [17]: > 100 µM; TGI [18]: > 100 µM; TGI [19]: > 100 µM; TGI [20]: > 100 µM; TGI [21]: > 100 µM; TGI [22]: > 100 µM; TGI [23]: > 100 µM; TGI [24]: > 100 µM; TGI [25]: > 100 µM; TGI [26]: > 100 µM; TGI [27]: > 100 µM; TGI [28]: > 100 µM; TGI [29]: > 100 µM; TGI [30]: > 100 µM; TGI [31]: > 100 µM; TGI [32]: > 100 µM; TGI [33]: > 100 µM; TGI [34]: > 100 µM; TGI [35]: > 100 µM; TGI [36]: > 100 µM; TGI [37]: > 100 µM; TGI [38]: > 100 µM; TGI [39]: > 100 µM; TGI [40]: > 100 µM; TGI [41]: > 100 µM; TGI [42]: > 100 µM; TGI [43]: > 100 µM; TGI [44]: > 100 µM; TGI [45]: > 100 µM; TGI [46]: > 100 µM; TGI [47]: > 100 µM; TGI [48]: > 100 µM; TGI [49]: > 100 µM; TGI [50]: > 100 µM; TGI [51]: > 100 µM; TGI [52]: > 100 µM; TGI [53]: > 100 µM; TGI [54]: > 100 µM; TGI [55]: > 100 µM; TGI [56]: > 100 µM

From PubChem BioAssay (NCI)
